Key:
[1] = system: Liver Injuries caused by Carbon Tetrachloride in Rats; experiment: Inhibitory effect against liver injuries caused by carbon tetrachloride in rats; format: in vivo, Rats (SD, male); conditions: CCl4 i.p., serum 24 h
Text: (§1) The carbon tetrachloride model(see, Philippe letteron et al., Biochemical Pharmacology, 39, 12, 2027-2034, 1990; Tips, 10, 1989; Kyoichi Kagawa et al., Japan J. Pharmacol., 42, 19-26, 1986; K. T. Liu and P. Lesca, Chem. Biol. Interactions, 41, 39-47, 1982; Richard O. et al., J. Biological Chemistry, 236, 2, 1961) is used most generally. This model has been established based on the internal phenomena that carbon tetrachloride is converted by cytochrome P-450 to a toxic free radical trichloromethyl(CCl3.), this radical is strongly bound to a thiol group of membrane protein on microsome of liver to form a lipid radical, which is then converted to a peroxy radical in the presence of oxygen to facilitate the peroxidation reaction of membrane lipid. That is, carbon tetrachloride suppresses protein biosynthesis in the liver, induces the increase of ALT and AST values in blood, and further causes histologically the centrilobular necrosis of the liver.
(§2) The degree of liver damage in the experimental animals was determined by measuring ALT and AST values in blood(see, Biol. Pharm. Bull., 20, 4, 381-385, 1997; Toxicology and Applied Pharmacology, 95, 1-11, 1988), and the hepatoprotective activity was calculated based on the following formula(see, Planta Medica, 55, 127-132, 1989). At this time, the hepatoprotective activity can also be calculated based on the same formula by replacing ALT value with AST value. [formula]
(§3) The hepatoprotective effect of the compound of the present invention was identified according to a known procedure(see, Philippe letteron et al., Biochemical Pharmacology, 39, 12, 2027-2034, 1990), and the protocol may be described in brief as follows.
(§4) Rats(SD, male, 180˜200 g) and mice(ICR, male, 27-35 g) used in the test were allowed in a condition of temperature 22±1° C. and relative humidity 60±5%. Feed and water were provided with no restriction while light and darkness were changed at an interval of 12 hours.
(§5) […] […] Each group included 8 test animals, and the test compound was orally administered once per animal. After 30 minutes(rat) or 1 hour(mouse) from the administration of the test compound, 10% carbon tetrachloride in corn oil solution was intraperitoneally injected in doses of 2 ml/kg in rats and 0.15 ml/kg in mice. As the control compounds, silymarin and DDB were selected.
(§6) The test animals were provided with no feed and sufficient water for 24 hours from the administration of carbon tetrachloride. […] This blood was centrifuged to obtain sera. ALT and AST values in the sera were measured using blood chemistry analyzer(Vitalab, Selectra II, Merck). The statistical significance for the test result of each group was examined based on Student's t-test, and the result was recognized as having a statistical significance when its P value is less than 5%.

[2] = system: Liver Injuries caused by Carbon Tetrachloride in Mice; experiment: Inhibitory effect against liver injuries caused by carbon tetrachloride in mice; format: in vivo, mice (ICR, male); conditions: CCl4 i.p., serum 24 h
Text: as §1, §2, §3, §4, §5, §6

[3] = system: Liver Injuries caused by D-galactosamine in Rats; experiment: Inhibitory effect against liver injuries caused by D-galactosamine in rats; format: in vivo, Rats (SD, male); conditions: D-galactosamine i.p., serum 24 h
Text: The hepatoprotective effect of the compound of formula (1) was also identified by D-galactosamine model(see, Koji Hase et al., Biol. Pharm. Bull., 20, 4, 381-385, 1997; Jun-ichi Nagakawa et al., J. Pharmacology and Experimental Therapeutics, 264, 1, 1992; Toxicology of the Liver, Raven Press, New York, 1985). The N-acyl galactosamine resulted from the excess administration of D-galactosamine acts as a substrate for UDP-galactosamine or UDP-N-acyl galactosamine. But, the inordinate synthesis of […] and UDP-hexosamine may inhibit the binding of UTP in the liver cells and biosynthsis of UDP-glucose and UDP-galactose, which finally causes the structural and functional changes of the liver cell membranes. Consequently, it results in sporadic necrosis and the increase of ALT and AST values in blood. Since the toxicity caused by D-galactosamine looks similar to the symptoms of viral hepatitis, D-galactosamine model is also used conventionally as a model for viral hepatitis.
as §2
The hepatoprotective effect of the compound of the present invention was identified according to a known procedure(see, Koji Hase et al., Biol. Pharm. Bull., 20, 4, 381-385, 1997), and the protocol may be described in brief as follows.
Rats(SD, male, 180˜200 g) as the test animal were allowed in a condition of temperature 22±1° C. and relative humidity 60±5%. Feed and water were provided with no restriction while light and darkness were changed at an interval of 12 hours.
The compound of the present invention was suspended in a solvent corn oil, and this suspension was administered in a dose of 2 ml/kg. Each group included 8 test animals, and the test compound was orally administered for once per animal. After 30 minutes from the administration of the test compound, D-galactosamine solution(concentration: 200 mg/ml) in physiological saline was intraperitoneally injected in a dose of 2 ml/kg. As the control compounds, silymarin and DDB were selected.
as §6, with “D-galactosamine.” for “carbon tetrachloride.”

SMILES	Inhibitory Effect against Liver Injuries (%) ALT ([1]; dose 16.7 mg/kg p.o. once) [%]	Inhibitory Effect against Liver Injuries (%) ALT ([1]; dose 50 mg/kg p.o. once) [%]	Inhibitory Effect against Liver Injuries (%) ALT ([2]; dose 16.7 mg/kg p.o. once) [%]	Inhibitory Effect against Liver Injuries(%) AST ([2]; dose 16.7 mg/kg p.o. once) [%]	Inhibitory Effect against Liver Injuries (%) ALT ([2]; dose 50 mg/kg p.o. once) [%]	Inhibitory Effect against Liver Injuries(%) AST ([2]; dose 50 mg/kg p.o. once) [%]	Inhibitory Effect against Liver Injuries (%) ALT ([3]; dose 5.6 mg/kg p.o. once) [%]	Inhibitory Effect against Liver Injuries(%) AST ([3]; dose 5.6 mg/kg p.o. once) [%]	Inhibitory Effect against Liver Injuries (%) ALT ([3]; dose 16.7 mg/kg p.o. once) [%]	Inhibitory Effect against Liver Injuries(%) AST ([3]; dose 16.7 mg/kg p.o. once) [%]	Inhibitory Effect against Liver Injuries (%) ALT ([3]; dose 50 mg/kg p.o. once) [%]	Inhibitory Effect against Liver Injuries(%) AST ([3]; dose 50 mg/kg p.o. once) [%]	Inhibitory Effect against Liver Injuries (%) ALT ([1]; dose 1.9 mg/kg p.o. once) [%]	Inhibitory Effect against Liver Injuries (%) ALT ([1]; dose 5.6 mg/kg p.o. once) [%]	Inhibitory Effect against Liver Injuries (%) ALT ([2]; dose 1.9 mg/kg p.o. once) [%]	Inhibitory Effect against Liver Injuries (%) ALT ([2]; dose 5.6 mg/kg p.o. once) [%]
CC(=O)SCC(=O)c1ccc2c(c1)OCO2 [Compound 28, 1-(benzo[3,4-d]1,3-dioxolan-5-yl)-2-acetylthioethan-1-one]	14	41	93	94	100	100	42	48	51	55	52	55				
c1csc(-c2ccc3c(c2)OCO3)n1 [Compound 21, 2-(benzo[3,4-d]1,3-dioxolan-5-yl)-1,3-thiazole]	63	67	99	97	100	100	27	29	32	29	56	46				
COc1cc(/C=N/OCc2ccccn2)cc2c1OCO2 [Compound 13, 6-(2-((2-pyridyl)methoxy)-2-azavinyl)-4-methoxybenzo [d]1,3-dioxolane]	59	67	69		100		34		35		67		53	49	35	43
COC(=O)c1cc(OC)c2c(c1-c1c(C(=O)OC)cc(OC)c3c1OCO3)OCO2 [DDB, reference compound]		21			22	6					28	12				
O/N=C/c1ccc2c(c1)OCO2 [Compound 1]	68	84	100		100				5		12		44	43	50	79

Source: patent US6693126B2, “Dihydroxyphenyl derivatives for hepatoprotection and treatment of liver diseases” (Choongwae Pharm. Co., Ltd., priority 2000, dated 2004)
